Measured values from PMC7587356, “High-Throughput Screening for Inhibitors of the SARS-CoV-2 Protease Using a FRET-Biosensor” (Molecules, 2020).
Where a name gives a salt, the structure may show the parent alone. Read-outs that look alike come from different tables or passages of the source.

Biological target: SARS-CoV-2 3CLpro (Severe acute respiratory syndrome coronavirus 2, UniProt P0DTD1)
Assay: biochemical
Format: biochemical
Parameters: Replicate_1 / Replicate_2 / mean / mean (LOPAC_screen_w_protease): unit not given here
Conditions: for inhibition at 5 µM: 4 h; for mean (LOPAC screen with protease) / Replicate_1 (LOPAC screen with protease) / Replicate_2 (LOPAC screen with protease): primary screen at 5 µM
[1] = sheet LOPAC_screen_w_protease, primary screen of LOPAC1280 at 5 µM with protease, mean of the two replicates, read-out: mean
[2] = sheet LOPAC_screen_w_protease, primary screen of LOPAC1280 at 5 µM with protease, replicate 1, read-out: Replicate_1
[3] = sheet LOPAC_screen_w_protease, primary screen of LOPAC1280 at 5 µM with protease, replicate 2, read-out: Replicate_2
[4] = LOPAC1280 primary screen with protease, 5 µM compound, replicate 1, read-out: Replicate_1 (LOPAC_screen_w_protease)
[5] = LOPAC1280 primary screen with protease, 5 µM compound, replicate 2, read-out: Replicate_2 (LOPAC_screen_w_protease)
[6] = sheet LOPAC_screen_w_protease, mean of two replicates
[7] = sheet LOPAC_screen_w_protease, replicate 1
[8] = sheet LOPAC_screen_w_protease, replicate 2
[9] = LOPAC1280 primary screen with protease, 5 µM compound, mean of the two replicates
[10] = sheet LOPAC_screen_w_protease, LOPAC1280 primary screen at 5 µM, with protease, mean of the two replicates
[11] = sheet LOPAC_screen_w_protease, LOPAC1280 primary screen at 5 µM, with protease, replicate 1
[12] = sheet LOPAC_screen_w_protease, LOPAC1280 primary screen at 5 µM, with protease, replicate 2
[13] = sheet LOPAC_screen_w_protease, primary screen with protease, 5 µM, mean of two replicates, read-out: mean
[14] = sheet LOPAC_screen_w_protease, primary screen with protease, 5 µM, replicate 1, read-out: Replicate_1
[15] = sheet LOPAC_screen_w_protease, primary screen with protease, 5 µM, replicate 2, read-out: Replicate_2
[16] = sheet LOPAC_screen_w_protease, primary screen with protease, 5 µM, mean of two replicates
[17] = sheet LOPAC_screen_w_protease, primary screen with protease, 5 µM, replicate 1
[18] = sheet LOPAC_screen_w_protease, primary screen with protease, 5 µM, replicate 2

`CC(C)CN(C)c1nc(N)c(C(=O)N=C(N)N)nc1Cl` [5-(N-Methyl-N-isobutyl)amiloride] showed an inhibition at 5 µM (sheet LOPAC_screen_w_protease, LOPAC1280 primary screen at 5 µM, with protease, mean of the two replicates, read-out: mean) of 0.449%, an inhibition at 5 µM (sheet LOPAC_screen_w_protease, LOPAC1280 primary screen at 5 µM, with protease, replicate 1, read-out: Replicate_1) of 0.238% and an inhibition at 5 µM (sheet LOPAC_screen_w_protease, LOPAC1280 primary screen at 5 µM, with protease, replicate 2, read-out: Replicate_2) of 0.66%.

`CN[C@H](CC(=O)O)C(=O)O` [N-Methyl-D-aspartic acid] gave an inhibition at 5 µM [1] of 3.42%, an inhibition at 5 µM [2] of 4.04% and an inhibition at 5 µM [3] of 2.81%.

`CO[C@@]1(NC(=O)CSCC#N)C(=O)N2C(C(=O)O)=C(CSc3nnnn3C)CS[C@@H]21` [Cefmetazole sodium] was tested, and the inhibition at 5 µM [4] was 1.13%, the inhibition at 5 µM [5] was 2.27% and the “mean (LOPAC_screen_w_protease)” value (LOPAC1280 primary screen with protease, 5 µM compound, mean of two replicates) was 1.702.

`CCCN1CCc2cccc3c2[C@H]1Cc1ccc(O)c(O)c1-3.Cl` [R(-)-Propylnorapomorphine hydrochloride] was tested, and the “mean (LOPAC screen with protease)” value [6] was 100.867, the “Replicate_1 (LOPAC screen with protease)” value [7] was 101.086 and the “Replicate_2 (LOPAC screen with protease)” value [8] was 100.647.

In the case of `Cn1c(=O)[nH]c2ncn(C)c2c1=O` [1,7-Dimethylxanthine], the inhibition at 5 µM [4] is reported as 1.95%, the inhibition at 5 µM [5] is reported as 1.66% and the “mean (LOPAC_screen_w_protease)” value [9] is reported as 1.802.

For `CCN(CC)C(=O)N[C@H]1C[C@@H]2c3cccc4[nH]cc(c34)C[C@H]2N(C)C1` [R(+)-Terguride], the mean [10] was 0.4418, the Replicate_1 [11] was 0.9662 and the Replicate_2 [12] was -0.08256.

Molecule `Cl.Cl.Clc1cccc(N2CCNCC2)c1` has a mean [10] of 0.4258, a Replicate_1 [11] of 0.3435 and a Replicate_2 [12] of 0.5081.

For `CCCCNc1c(C(=O)OCC)c(C)nc2c1cnn2CC` [Tracazolate], the inhibition at 5 µM [13] was -0.116%, the inhibition at 5 µM [14] was 0.109% and the inhibition at 5 µM [15] was -0.341%.

In the case of `CN1C2CCC1CC(OC(=O)c1c[nH]c3ccccc13)C2.Cl` (stereo not drawn), the mean [10] is reported as 0.5358, the Replicate_1 [11] is reported as 1.053 and the Replicate_2 [12] is reported as 0.01899.

With `C[C@](N)(Cc1ccc(O)c(O)c1)C(=O)O` [L-alpha-Methyl DOPA] the “mean (LOPAC screen with protease)” value [6] was 7.163, the “Replicate_1 (LOPAC screen with protease)” value [7] was 6.315 and the “Replicate_2 (LOPAC screen with protease)” value [8] was 8.01.

Work on `C[N+](C)(C)CCO.[Br-]` [Choline bromide] yielded a Replicate_1 of 2.262, a Replicate_2 of 3.547 and a mean of 2.905.

`CC(C)NCC(O)c1ccc(O)c(O)c1.Cl` (racemic) [(±)-Isoproterenol hydrochloride] showed a Replicate_1 (sheet LOPAC_screen_w_protease, primary screen with protease, compound at 5 µM, replicate 1) of 3.707 and a Replicate_2 (sheet LOPAC_screen_w_protease, primary screen with protease, compound at 5 µM, replicate 2) of 1.7371.

Work on `CP(=O)(O)C1=CCNCC1` [TPMPA] yielded a mean [16] of 0.264, a Replicate_1 [17] of -0.09904 and a Replicate_2 [18] of 0.6269.

`COc1ccc2cc([C@H](C)C(=O)[O-])ccc2c1.[Na+]` [(-)-Naproxen sodium] showed a Replicate_2 of -1.573 and a mean of 0.4756.

Molecule `Nc1nc(N)c2nc(-c3ccccc3)c(N)nc2n1` [Triamterene] has an inhibition at 5 µM [13] of -0.222%, an inhibition at 5 µM [14] of 2.19% and an inhibition at 5 µM [15] of -2.63%.

`CC(C)C[C@H](NP(=O)([O-])O[C@H]1O[C@H](C)[C@@H](O)[C@H](O)[C@@H]1O)C(=O)N[C@@H](Cc1c[nH]c2ccccc12)C(=O)[O-].[Na+].[Na+]` [Phosphoramidon disodium] gave a mean [16] of 0.1697, a Replicate_1 [17] of 0.5227 and a Replicate_2 [18] of -0.1832.

With `COc1cccc2c1[C@@H]1CN(CCCCn3c(=O)[nH]c4c(sc5ncc(-c6ccccc6)nc54)c3=O)C[C@@H]1CO2` [Fiduxosin hydrochloride] the inhibition at 5 µM [1] was 3.27%, the inhibition at 5 µM [2] was 3.54% and the inhibition at 5 µM [3] was 3.01%.

`O=c1c(-c2ccc(O)cc2)coc2cc(O)cc(O)c12` [Genistein] was tested, and the inhibition at 5 µM (read-out: Replicate_1 (LOPAC_screen_w_protease)) was 2.15% and the inhibition at 5 µM (read-out: Replicate_2 (LOPAC_screen_w_protease)) was 0.656%.

`CCc1c(C(=O)OC)ncc2[nH]c3cc(OC)c(OC)cc3c12` was tested, and the “mean (LOPAC_screen_w_protease)” value [9] was 2.118, the “Replicate_1 (LOPAC_screen_w_protease)” value (LOPAC1280 primary screen with protease, 5 µM compound, replicate 1) was 4.217 and the “Replicate_2 (LOPAC_screen_w_protease)” value (LOPAC1280 primary screen with protease, 5 µM compound, replicate 2) was 0.01945.
